Read-outs that look alike come from different tables or passages of the source.
Columns and labels:
[1] = test system: TNFα; experiment: cells; assay type: cell-based, human; conditions: Homo sapiens, Monocyte, LPS-stimulated human monocytes, read-out: EC50 TNF
[2] = target: IRAK4 enzyme (Homo sapiens (Human), UniProt Q9NWZ3); experiment: biochemical; assay type: biochemical; conditions: IRAK4 enzyme, 500 μM ATP
Sequence of IRAK4 enzyme (Q9NWZ3 whole entry): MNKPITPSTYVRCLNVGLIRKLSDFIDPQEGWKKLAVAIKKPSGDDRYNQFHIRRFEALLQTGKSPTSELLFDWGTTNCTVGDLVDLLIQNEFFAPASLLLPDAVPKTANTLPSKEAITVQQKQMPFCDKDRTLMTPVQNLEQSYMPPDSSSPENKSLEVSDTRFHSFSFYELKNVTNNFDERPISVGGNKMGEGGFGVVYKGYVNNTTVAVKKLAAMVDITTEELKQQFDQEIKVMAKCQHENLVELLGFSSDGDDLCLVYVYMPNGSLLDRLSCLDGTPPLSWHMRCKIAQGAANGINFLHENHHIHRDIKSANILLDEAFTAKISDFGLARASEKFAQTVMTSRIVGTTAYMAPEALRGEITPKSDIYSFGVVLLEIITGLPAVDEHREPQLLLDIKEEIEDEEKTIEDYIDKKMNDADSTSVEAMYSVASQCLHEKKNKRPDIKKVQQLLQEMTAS

Row | Structure (SMILES) | EC50 ([1]; TNFα content) [µM] | IC50 ([2]; TR-FRET) [µM] | IC50 ([2]; TR-FRET (HTRF)) [µM] | EC50 ([1]; TNFα by TR-FRET) [µM]
1 | COCCn1cc(Nc2cc(-c3ccc4cc(C#N)cnn34)ncc2C(=O)NC[C@@H](F)C(C)(C)O)cn1 [Example 119, (R)-6-(3-cyanopyrrolo[1,2-b]pyridazin-7-yl)-N-(2-fluoro-3-hydroxy-3-methylbutyl)-4-((1-(2-methoxyethyl)-1H-pyrazol-4-yl)amino) nicotinamide] | 0.032 | < 0.001 |  | 
2 | COC(=O)N[C@H]1C[C@H](Nc2cc(-c3ccc4cc(C#N)cnn34)ncc2C(=O)NC[C@@H](F)C(C)(C)O)C1 [Example 455, methyl ((1R,3r)-3-((2-(3-cyanopyrrolo[1,2-b]pyridazin-7-yl)-5-(((R)-2-fluoro-3-hydroxy-3-methylbutyl)carbamoyl)pyridin-4-yl)amino)cyclobutyl)carbamate] | 0.118 |  | 0.001 | 
3 | CC(C)(O)[C@H](F)CNC(=O)c1cnc(-c2ccc3cc(C#N)cnn23)cc1NC12CCC(N)(CC1)CC2 [Example 318, (R)-4-((4-amino-bicyclo[2.2.2]octan-1-yl)amino)-6-(3-cyano-pyrrolo[1,2-b]pyridazin-7-yl)-N-(2-fluoro-3-hydroxy-3-methylbutyl)nicotinamide] | 0.023 | < 0.001 |  | 
4 | CC(C)(O)[C@H](F)CNC(=O)c1cnc(-c2ccc3cc(C#N)cnn23)cc1NC1CC2(CNC(=O)O2)C1 (stereo partly drawn) [Example 763, (R)-6-(3-cyanopyrrolo[1,2-b]pyridazin-7-yl)-N-(2-fluoro-3-hydroxy-3-methylbutyl)-4-((6-oxo-5-oxa-7-azaspiro[3.4]octan-2-yl)amino)nicotinamide] | 0.155 |  | < 0.001 | 
5 | CC(C)(O)[C@H](F)CNC(=O)c1cnc(-c2ccc3cc(C#N)cnn23)cc1Nc1ccc(-n2cnnc2)cc1 [Example 772, (R)-4-((4-(4H-1,2,4-triazol-4-yl)phenyl)amino)-6-(3-cyanopyrrolo[1,2-b]pyridazin-7-yl)-N-(2-fluoro-3-hydroxy-3-methylbutyl)nicotinamide] | 0.014 |  | < 0.001 | 
6 | N#Cc1cnn2c(-c3cc(N[C@H]4CCC[C@@H](O)C4)c(C(=O)NC4CC4)cn3)ccc2c1 [Example 514, 6-(3-cyanopyrrolo[1,2-b]pyridazin-7-yl)-N-cyclopropyl-4-(((1S,3R)-3-hydroxy-cyclohexyl)amino) nicotinamide] | 0.213 |  | 0.009 | 
7 | CNC(=O)c1cnc(-c2ccc3cc(C#N)cnn23)cc1NC12CCC(C(=O)N3CCC3)(CC1)CC2 [Example 484, 4-((4-(azetidine-1-carbonyl)bicyclo[2.2.2]octan-1-yl)amino)-6-(3-cyanopyrrolo[1,2-b]pyridazin-7-yl)-N-methyl-nicotinamide] | 0.063 |  | 0.001 | 
8 | CC(=O)N[C@H]1C[C@H](NC(=O)c2cnc(-c3ccc4cc(C#N)cnn34)cc2NC(C)C)C1 [Example 124, N-((1r,3r)-3-acetamido-cyclobutyl)-6-(3-cyano-pyrrolo[1,2-b]pyridazin-7-yl)-4-(isopropylamino) nicotinamide] | 0.182 | 0.003 |  | 
9 | CC(C)(O)[C@H](F)CNC(=O)c1cnc(-c2ccc3cc(C#N)cnn23)cc1Nc1cccc(-c2ncc[nH]2)c1 [Example 221, (R)-4-((3-(1H-imidazol-2-yl)phenyl)amino)-6-(3-cyanopyrrolo[1,2-b]pyridazin-7-yl)-N-(2-fluoro-3-hydroxy-3-methylbutyl)nicotinamide] | 0.098 | < 0.001 |  | 
10 | COCC(=O)N[C@H]1CC[C@H](Nc2cc(-c3ccc4cc(C#N)cnn34)ncc2C(=O)NC[C@@H](F)C(C)(C)O)CC1 [Example 284, 6-(3-cyanopyrrolo[1,2-b]pyridazin-7-yl)-N-((R)-2-fluoro-3-hydroxy-3-methylbutyl)-4-(((1r,4R)-4-(2-methoxyacetamido)cyclohexyl)amino) nicotinamide] | 0.088 | 0.001 |  | 
11 | C=CC(=O)N[C@H]1CC[C@H](NC(=O)c2cnc(-c3ccc4cc(C#N)cnn34)cc2NC2CCCC(O)C2)CC1 (stereo partly drawn) [Example 505, N-((1r,4S)-4-acrylamidocyclohexyl)-6-(3-cyanopyrrolo[1,2-b]pyridazin-7-yl)-4-(((1S,3R)-3-hydroxycyclohexyl)amino)nicotinamide] | 0.139 |  | 0.001 | 
12 | CC(C)Nc1cc(-c2ccc3cc(C#N)cnn23)ncc1C(=O)NC1CCOCC1 [Example 6, 6-(3-cyanopyrrolo[1,2-b]pyridazin-7-yl)-4-(isopropylamino)-N-(tetrahydro-2H-pyran-4-yl)nicotinamide] | 0.152 | 0.005 |  | 
13 | COC(=O)NCCCC(C)(C)Nc1cc(-c2ccc3cc(C#N)cnn23)ncc1C(=O)NC[C@@H](F)C(C)(C)O [Example 720, (R)-methyl (4-((2-(3-cyano-pyrrolo[1,2-b]pyridazin-7-yl)-5-((2-fluoro-3-hydroxy-3-methylbutyl)carbamoyl)pyridin-4-yl)amino)-4-methylpentyl)carbamate] | 0.243 |  | 0.002 | 
14 | N#Cc1cnn2c(-c3cc(NC45CCC(O)(CC4)CC5)c(C(=O)NCC4CCO4)cn3)ccc2c1 (stereo not shown) [Example 616, 6-(3-cyanopyrrolo[1,2-b]pyridazin-7-yl)-4-((4-hydroxybicyclo[2.2.2]octan-1-yl)amino)-N-(oxetan-2-ylmethyl) nicotinamide] | 0.144 |  | 0.002 | 
15 | CC(C)(O)[C@H](F)CNC(=O)c1cnc(-c2ccc3cc(C#N)cnn23)cc1Nc1cnn([C@@H]2CNC[C@H]2F)c1 [Example 882, 6-(3-cyanopyrrolo[1,2-b]pyridazin-7-yl)-N-((R)-2-fluoro-3-hydroxy-3-methylbutyl)-4-((1-((3R,4R)-4-fluoro-pyrrolidin-3-yl)-1H-pyrazol-4-yl)amino) nicotinamide] |  | < 0.001 |  | 0.022
16 | CC(C)(O)[C@H](F)CNC(=O)c1cnc(-c2ccc3cc(C#N)cnn23)cc1NC1CC2(CCN2)C1 (stereo partly drawn) [Example 908, 4-(((4S,6r)-1-azaspiro[3.3]heptan-6-yl)amino)-6-(3-cyanopyrrolo[1,2-b]pyridazin-7-yl)-N-((R)-2-fluoro-3-hydroxy-3-methylbutyl)nicotinamide] |  | 0.006 |  | 0.611
17 | CC1(O)CCC(Nc2cc(-c3ccc4cc(C#N)cnn34)ncc2C(=O)NC[C@@H](F)C(C)(C)O)CC1 (stereo partly drawn) [Example 154, 6-(3-cyanopyrrolo[1,2-b]pyridazin-7-yl)-N-((R)-2-fluoro-3-hydroxy-3-methylbutyl)-4-(((1s,4S)-4-hydroxy-4-methyl-cyclohexyl)amino)nicotinamide] | 0.034 | < 0.001 |  | 
18 | N#CCCNC(=O)c1cnc(-c2ccc3cc(C#N)cnn23)cc1NC12CCC(O)(CC1)CC2 [Example 352, N-(2-cyanoethyl)-6-(3-cyanopyrrolo[1,2-b]pyridazin-7-yl)-4-((4-hydroxybicyclo[2.2.2]octan-1-yl)amino) nicotinamide] | 0.076 | 0.001 |  | 
19 | CC(C)(O)[C@H](F)CNC(=O)c1cnc(-c2ccc3cc(C#N)cnn23)cc1Nc1ccc(C(N)=O)cc1 [Example 381] | 0.018 | < 0.001 |  | 
20 | COC(=O)N1CCOC[C@H]1CNc1cc(-c2ccc3cc(C#N)cnn23)ncc1C(=O)NC[C@@H](F)C(C)(C)O [Example 918, (R)-methyl 3-(((2-(3-cyano-pyrrolo[1,2-b]pyridazin-7-yl)-5-(((R)-2-fluoro-3-hydroxy-3-methylbutyl)carbamoyl)pyridin-4-yl)amino)methyl)morpholine-4-carboxylate] |  | 0.031 |  | 0.416

— patent US10336762B2 (priority 2017, dated 2019)
